Tests used:
MDA435/LCC6 MDR cells = assay: cells
[1] = tested on: pentamidine-resistant L. enriettii LePentR50 promastigotes; assay: microbe, parasite or virus in culture
[2] = tested on: SSG-resistant L. donovani Ld39 promastigotes; assay: microbe, parasite or virus in culture; type: cell-based, Leishmania donovani
[3] = MDA435/LCC6 MDR, 5 μM dimer, FIG. 5

Structure (SMILES): O=c1cc(-c2ccc(OCCOCCOCCOCCOc3ccc(-c4cc(=O)c5c(O)cc(O)cc5o4)cc3)cc2)oc2cc(O)cc(O)c12 [Compound 9d, 1,13-Bis[4′-((5,7-dihydroxy)-4H-chromen-4-on-2-yl)phenyl]-1,4,7,10,13-pentaoxamidecane]
- RF, daunorubicin (IC50 without modulator / IC50 with modulator) (MDA435/LCC6 MDR cells; LCC6 MDR, daunorubicin + 5 μM 9d): 7.6
- RF, doxorubicin (IC50 without modulator / IC50 with modulator) (MDA435/LCC6 MDR cells; LCC6 MDR, doxorubicin + 5 μM 9d or VP): 9
- RF, mitoxantrone (IC50 without modulator / IC50 with modulator) (MDA435/LCC6 MDR cells; LCC6 MDR, mitoxantrone + 5 μM 9d): 2.2
- RF, taxol (IC50 without modulator / IC50 with modulator) (MDA435/LCC6 MDR cells; LCC6 MDR, taxol + 5 μM 9d or VP): 22
- RF, vinblastine (IC50 without modulator / IC50 with modulator) (MDA435/LCC6 MDR cells; LCC6 MDR, vinblastine + 5 μM 9d or VP): 10
- RF, vincristine (IC50 without modulator / IC50 with modulator) (MDA435/LCC6 MDR cells; LCC6 MDR, vincristine + 5 μM 9d): 41
- reversal of resistance to vinblastine, taxol, doxorubicin, vincristine, daunorubicin (MDA435/LCC6 MDR cells; MDA435/LCC6 MDR, 5 μM 9d, FIG. 6A to 6E): to a level close to the parental
- effect on mitoxantrone resistance (MDA435/LCC6 MDR cells; MDA435/LCC6 MDR, 5 μM 9d, FIG. 6F): No effect
- IC60 of doxorubicin with modulator (MDA435/LCC6 MDR cells; [3]): 0.73 µM
- reduction of IC60 of doxorubicin, RF (MDA435/LCC6 MDR cells; [3]): about 6 RF
- concentration reaching the plateau of taxol reversing activity (MDA435/LCC6 MDR cells; MDA435/LCC6 MDR, FIG. 3B): 5 µM
- cytotoxicity under accumulation conditions ([1]; LePentR50, 60 μM 9d, 3 hours, data not shown): did not result in any cytotoxicity
- pentamidine sensitization ([1]; LePentR50, FIG. 18A): ~3.7 fold
- toxicity of modulator alone ([1]; LePentR50, up to 6 μM): No toxicity
- EC50 ([1]; read-out: EC50 (concentration resulting in 50% survival of LePentR50 at 60 μg/ml pentamidine), co-treatment with 60 μg/ml pentamidine, FIG. 15): ~0.94 µM
- IC50 ([1]; read-out: IC50(μM) of synthetic flavonoid, LePentR50, cytotoxicity of compound alone, 72 hrs): > 200 µM
- reduction of SSG resistance level ([2]; Ld39, 4 μM, FIGS. 17A and 17B): back to the level of the sensitive strain
- SSG sensitization ([2]; Ld39, FIG. 18B): 3.9 fold
- IC50 ([2]; cytotoxicity of compound alone, 72 hrs, read-out: IC50(μM) of synthetic flavonoid, Ld39): 10 ± 0.9 µM

From US8710097B2, “Flavonoid dimers and methods of making and using such” (The Hong Kong Polytechnic University, priority 2006, dated 2014)
